Values joined by “and” are separate entries in the source; they are usually repeats but may differ in a detail not shown here. Equal entries are not always repeated.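 Briefly, cells in 96-well plates were exposed to five compound concentrations for 48 h, and endpoints were estimated by linear interpolation. GI50: concentration for 50% inhibition of growth. Definition used: TGI = concentration required for complete inhibition of growth.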 A value given as a limit tells only on which side of the number the result lay.

Our source for the TGI and GI50 values is PubChem BioAssay (NCI).

Some test systems named below: KM12 colon; NCI-H522 lung; SF-268 CNS; DU-145 prostate; HS 578T breast; K-562 leukemia; HOP-62 NSCLC; OVCAR-4 ovarian; UACC-257 melanoma; TK-10 renal.
What all share (experiment): NCI anticancer screen, dose series, 48 h

`O=C(O)c1ccc2c(c1)Cc1cc([N+](=O)[O-])ccc1-2`: the TGI with KM12 colon, in the assay with NCI-H522 lung, in the assay on SF-268 CNS, in the assay on DU-145 prostate, in the assay on HS 578T breast and with K-562 leukemia was more than 100 µM throughout. Also, the TGI in the assay with HOP-62 NSCLC, with OVCAR-4 ovarian, in the assay with UACC-257 melanoma and with TK-10 renal was more than 100 µM throughout.

Take `CN(C)CCCn1c2c(c3cnccc3c1=O)C(=O)c1ccccc1-2`: the GI50 is 0.488 µM in the assay with KM12 colon; 0.312 µM in the assay on NCI-H522 lung; 0.62 µM with SF-268 CNS; 0.49 µM in the assay on DU-145 prostate; 1.04 µM in the assay on HS 578T breast; 0.474 µM in the assay with K-562 leukemia. Further, the GI50 in the assay on HOP-62 NSCLC is 0.402 µM; in the assay with OVCAR-4 ovarian, 0.601 µM; with UACC-257 melanoma, 0.486 µM; in the assay with TK-10 renal, 0.721 µM. Besides, the TGI in the assay with KM12 colon came to 9.58 µM; with NCI-H522 lung, 7.24 µM; in the assay with SF-268 CNS, 7.24 µM; in the assay with DU-145 prostate it was 3.43 µM; with HS 578T breast, 7.53 µM; with K-562 leukemia, 12.5 µM. The TGI was 7.75 µM in the assay with HOP-62 NSCLC, 8.89 µM in the assay with OVCAR-4 ovarian, 3.21 µM with UACC-257 melanoma and 27.6 µM in the assay with TK-10 renal.

Regarding `COc1ccc(-n2c(SCc3cc(OC)c(OC)c(OC)c3)nc3ccc(C)cc3c2=O)c(OC)c1`, the GI50 with KM12 colon is 3.42 µM; in the assay on NCI-H522 lung it was 3.58 µM; in the assay on SF-268 CNS, 7.88 µM; in the assay with DU-145 prostate it was 3.72 µM; in the assay on HS 578T breast, 3.31 µM; in the assay with K-562 leukemia it was 2.99 µM. For the same compound, the GI50 in the assay with HOP-62 NSCLC is 18.8 µM; in the assay with OVCAR-4 ovarian, 4.65 µM; in the assay on UACC-257 melanoma, 7.81 µM; with TK-10 renal, 93.8 µM. Further, the TGI is more than 100 µM with KM12 colon; 72.7 µM in the assay with NCI-H522 lung; more than 100 µM in the assay on SF-268 CNS; more than 100 µM in the assay with DU-145 prostate; more than 100 µM with HS 578T breast; more than 100 µM in the assay on K-562 leukemia. In addition, the TGI with HOP-62 NSCLC, in the assay on OVCAR-4 ovarian, with UACC-257 melanoma and in the assay on TK-10 renal was more than 100 µM each time.

For the compound `C=C1C(=O)O[C@H]2[C@H]1CC/C(COC(=O)NCc1cc3ccccc3[nH]1)=C\CC[C@@]1(C)O[C@@H]21`, the GI50 in the assay with KM12 colon was 3.3 µM; in the assay on NCI-H522 lung it was 1.5 µM; in the assay with SF-268 CNS it was 2.08 µM; with DU-145 prostate it was 1.52 µM; in the assay with HS 578T breast, 2.8 µM; in the assay with K-562 leukemia it was 1.63 µM. The GI50 in the assay with HOP-62 NSCLC was 10.3 µM; in the assay on OVCAR-4 ovarian, 2.2 µM; with UACC-257 melanoma it was 2.11 µM; with TK-10 renal, 2.26 µM. In addition, the TGI with KM12 colon was determined as 12.8 µM; in the assay with NCI-H522 lung it was 3.29 µM; with SF-268 CNS, 5.4 µM; with DU-145 prostate it was 2.93 µM; with HS 578T breast it was 15.6 µM; in the assay on K-562 leukemia it was 9.18 µM. The TGI with HOP-62 NSCLC was 23.3 µM; in the assay with OVCAR-4 ovarian, 7.63 µM; with UACC-257 melanoma, 4.61 µM; in the assay with TK-10 renal, 4.19 µM.

For the compound `O=C(O)c1cc2ccccc2c(O)c1O`, the TGI in the assay on KM12 colon is 30.4 µM; in the assay with NCI-H522 lung, 28.9 µM; with SF-268 CNS it was 32 µM; in the assay on DU-145 prostate, 32.3 µM; with HS 578T breast it was 45.4 µM; with K-562 leukemia, more than 58.8 µM. Further, the TGI in the assay on HOP-62 NSCLC turned out to be 33 µM; in the assay on OVCAR-4 ovarian, 35 µM; in the assay on UACC-257 melanoma it was 23.1 µM; with TK-10 renal, 40.7 µM.

As for `O=c1cc(C(F)(F)F)c2cc3c(cc2o1)NCCC3`, the TGI with KM12 colon is more than 100 µM; with NCI-H522 lung, more than 100 µM; with SF-268 CNS, more than 100 µM; with DU-145 prostate it was more than 100 µM; in the assay on HS 578T breast it was 61.9 µM; in the assay with K-562 leukemia it was more than 100 µM. In addition, the TGI in the assay with HOP-62 NSCLC is 42.8 µM; in the assay on OVCAR-4 ovarian, more than 100 µM; in the assay with UACC-257 melanoma it was more than 100 µM; in the assay on TK-10 renal, more than 100 µM.

Turning to `CC(=O)Nc1ccc(/C=C/[N+](=O)[O-])cc1`, the TGI with KM12 colon is 26.7 µM; with NCI-H522 lung, 0.815 µM; in the assay with SF-268 CNS, 11.2 µM; with DU-145 prostate, more than 43.4 µM; in the assay on HS 578T breast, 32.6 µM; in the assay with K-562 leukemia, 8.57 µM. Further, the TGI worked out at 21.4 µM with HOP-62 NSCLC, 7.97 µM in the assay with OVCAR-4 ovarian, 17 µM with UACC-257 melanoma and 6.89 µM in the assay on TK-10 renal.

With `O=C(/C=C/c1cccnc1)NCCCCC1CCN(C(=O)c2ccccc2)CC1`, the GI50 in the assay on KM12 colon is 0.0145 µM and < 0.0118 µM; in the assay on NCI-H522 lung, less than 0.01 µM; in the assay with SF-268 CNS it was more than 100 µM; with DU-145 prostate, 0.0234 µM and < 0.0315 µM; with HS 578T breast it was more than 100 µM; in the assay on K-562 leukemia, less than 0.01 µM. Moreover, the GI50 is more than 100 µM in the assay on HOP-62 NSCLC; > 66 µM and 26.2 µM in the assay on OVCAR-4 ovarian; more than 100 µM with UACC-257 melanoma; more than 100 µM with TK-10 renal. Further, the TGI in the assay with KM12 colon, in the assay with NCI-H522 lung, in the assay on SF-268 CNS, in the assay on DU-145 prostate, in the assay on HS 578T breast and with K-562 leukemia was more than 100 µM in each case. For the same compound, the TGI in the assay on HOP-62 NSCLC, with OVCAR-4 ovarian, in the assay on UACC-257 melanoma and with TK-10 renal was more than 100 µM in each case.

Regarding `OCc1cn(Cc2cccc(Cl)c2)c2ccccc12`, the GI50 in the assay with KM12 colon was 16.2 µM; in the assay on NCI-H522 lung, 5.95 µM; in the assay with SF-268 CNS, 14 µM; with DU-145 prostate it was 11.6 µM; in the assay on HS 578T breast it was 9.27 µM; with K-562 leukemia, 1.99 µM. Moreover, the GI50 in the assay with HOP-62 NSCLC was 9.74 µM; in the assay with OVCAR-4 ovarian, 0.107 µM; with UACC-257 melanoma, 0.823 µM; in the assay with TK-10 renal, less than 0.0145 µM. Moreover, the TGI with KM12 colon came out at 33.8 µM; with NCI-H522 lung it was 22.7 µM; in the assay with SF-268 CNS it was 38.1 µM; in the assay on DU-145 prostate it was 47.8 µM; with HS 578T breast, 33.7 µM; in the assay with K-562 leukemia it was 31.9 µM. In addition, the TGI in the assay on HOP-62 NSCLC turned out to be 47.3 µM; in the assay with OVCAR-4 ovarian, 11.3 µM; in the assay with UACC-257 melanoma, 5.61 µM; in the assay with TK-10 renal, 0.21 µM.
